Measurements: PubChem BioAssay AID1918943 (Molecular Pharmacology Branch, DTP, NCI, 2023)

System: 855422-203-R-J1-PDC complex spheroid viability
Assay: Anticancer human tumor 855422-203-R-J1-PDC patient-derived bladder carcinoma cell line growth inhibition
Settings: for IC50: curve of first compound; for viability, T/C: stronger effect = lower value
In short: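 Multicellular complex spheroids of tumor cells with human endothelial cells (HUVEC) and mesenchymal stem cells; the LSD1 inhibitor iadademstat was combined with standard-of-care or investigational agents. Top concentration at or near clinical Cmax, half-log dilutions; final DMSO ≤0.25%.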
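Further: drug exposure lasted 7 days starting on day 3 after seeding.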
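Wherever viability, T/C is given: luminescence viability as percent of DMSO vehicle wells = 100%.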

Nc1ccccc1NC(=O)c1ccc(CNC(=O)OCc2cccnc2)cc1 + NC1CCC(NC2CC2c2ccccc2)CC1
IC50 (second compound 0.1 µM): 1340 nM
IC50 (second compound 0.316 µM): 1430 nM
IC50 (second compound 1 µM): 1370 nM
IC50 (second compound 3.16 µM): 1390 nM
IC50 (second compound 10 µM): 1060 nM
viability, T/C (second compound 0.1 µM, first compound 0.00949 µM): 94.5%
viability, T/C (second compound 0.1 µM, first compound 0.03 µM): 85%
viability, T/C (second compound 0.1 µM, first compound 0.0949 µM): 93.3%
viability, T/C (second compound 0.1 µM, first compound 0.3 µM): 96.1%
viability, T/C (second compound 0.1 µM, first compound 0.949 µM): 66.1%
viability, T/C (second compound 0.1 µM, first compound 3 µM): 12.3%
viability, T/C (second compound 0.316 µM, first compound 0.00949 µM): 93.5%
viability, T/C (second compound 0.316 µM, first compound 0.03 µM): 87.5%
viability, T/C (second compound 0.316 µM, first compound 0.0949 µM): 91.5%
viability, T/C (second compound 0.316 µM, first compound 0.3 µM): 95%
viability, T/C (second compound 0.316 µM, first compound 0.949 µM): 73.1%
viability, T/C (second compound 0.316 µM, first compound 3 µM): 9.06%
viability, T/C (second compound 1 µM, first compound 0.00949 µM): 93.2%
viability, T/C (second compound 1 µM, first compound 0.03 µM): 90.9%
viability, T/C (second compound 1 µM, first compound 0.0949 µM): 98%
viability, T/C (second compound 1 µM, first compound 0.3 µM): 95.9%
viability, T/C (second compound 1 µM, first compound 0.949 µM): 69.5%
viability, T/C (second compound 1 µM, first compound 3 µM): 9.07%
viability, T/C (second compound 3.16 µM, first compound 0.00949 µM): 84.6%
viability, T/C (second compound 3.16 µM, first compound 0.03 µM): 84.2%
viability, T/C (second compound 3.16 µM, first compound 0.0949 µM): 87.8%
viability, T/C (second compound 3.16 µM, first compound 0.3 µM): 85.5%
viability, T/C (second compound 3.16 µM, first compound 0.949 µM): 72%
viability, T/C (second compound 3.16 µM, first compound 3 µM): 5.75%
viability, T/C (second compound 10 µM, first compound 0.00949 µM): 88.7%
viability, T/C (second compound 10 µM, first compound 0.03 µM): 81.2%
viability, T/C (second compound 10 µM, first compound 0.0949 µM): 86.2%
viability, T/C (second compound 10 µM, first compound 0.3 µM): 87.3%
viability, T/C (second compound 10 µM, first compound 0.949 µM): 55.2%
viability, T/C (second compound 10 µM, first compound 3 µM): 1.52%

O=C(c1cc(Cc2n[nH]c(=O)c3ccccc23)ccc1F)N1CCN(C(=O)C2CC2)CC1 + NC1CCC(NC2CC2c2ccccc2)CC1
IC50 (second compound 0.1 µM): > 10000 nM
IC50 (second compound 0.316 µM): > 10000 nM
IC50 (second compound 1 µM): > 10000 nM
IC50 (second compound 3.16 µM): > 10000 nM
IC50 (second compound 10 µM): > 10000 nM
viability, T/C (second compound 0.1 µM, first compound 0.0316 µM): 89.1%
viability, T/C (second compound 0.1 µM, first compound 0.1 µM): 97.5%
viability, T/C (second compound 0.1 µM, first compound 0.316 µM): 83.5%
viability, T/C (second compound 0.1 µM, first compound 1 µM): 83.2%
viability, T/C (second compound 0.1 µM, first compound 3.16 µM): 84.6%
viability, T/C (second compound 0.1 µM, first compound 10 µM): 72.3%
viability, T/C (second compound 0.316 µM, first compound 0.0316 µM): 98.7%
viability, T/C (second compound 0.316 µM, first compound 0.1 µM): 90.8%
viability, T/C (second compound 0.316 µM, first compound 0.316 µM): 83.4%
viability, T/C (second compound 0.316 µM, first compound 1 µM): 84.6%
viability, T/C (second compound 0.316 µM, first compound 3.16 µM): 82.1%
viability, T/C (second compound 0.316 µM, first compound 10 µM): 73.8%
viability, T/C (second compound 1 µM, first compound 0.0316 µM): 94.2%
viability, T/C (second compound 1 µM, first compound 0.1 µM): 87.3%
viability, T/C (second compound 1 µM, first compound 0.316 µM): 87.7%
viability, T/C (second compound 1 µM, first compound 1 µM): 93%
viability, T/C (second compound 1 µM, first compound 3.16 µM): 88.1%
viability, T/C (second compound 1 µM, first compound 10 µM): 79.5%
viability, T/C (second compound 3.16 µM, first compound 0.0316 µM): 89.5%
viability, T/C (second compound 3.16 µM, first compound 0.1 µM): 89.8%
viability, T/C (second compound 3.16 µM, first compound 0.316 µM): 92%
viability, T/C (second compound 3.16 µM, first compound 1 µM): 87.7%
viability, T/C (second compound 3.16 µM, first compound 3.16 µM): 79.8%
viability, T/C (second compound 3.16 µM, first compound 10 µM): 76.1%
viability, T/C (second compound 10 µM, first compound 0.0316 µM): 83.3%
viability, T/C (second compound 10 µM, first compound 0.1 µM): 81.9%
viability, T/C (second compound 10 µM, first compound 0.316 µM): 86.4%
viability, T/C (second compound 10 µM, first compound 1 µM): 82.6%
viability, T/C (second compound 10 µM, first compound 3.16 µM): 80.8%
viability, T/C (second compound 10 µM, first compound 10 µM): 72.7%
